The results in this text go back to ChEMBL document CHEMBL1146396, “(2E,9E)-pyronaamidine 9-(N-methylimine), a new imidazole alkaloid from the northern Mariana islands sponge Leucetta sp. cf. chagosensis” (1997).

In brackets after ≈: the same amount, converted by molar mass.

Common to all, as to assay type: functional
One assay relates to HT-29. The assay is described as follows: Cytotoxicity against human HT-29 cells.
A further assay concerns A549. The assay is described as follows: Cytotoxicity against human A549 cells.
In another assay the test system is MCF7. The assay is described as follows: Cytotoxicity against human MCF7 cells.
The subject of another assay is Candida albicans. The assay is described as follows: Antimicrobial activity against Candida albicans at 100 ug/disk. The note with it: read-out: IZ.
A further assay has as its system Bacillus subtilis. Put plainly: Antimicrobial activity against Bacillus subtilis at 100 ug/disk. To be noted: read-out: IZ.

As usually defined, the GI50 is the concentration at which growth is held to half of that of the control.

On to `C/N=C1N=C(/N=c2\[nH]c(Cc3ccc(OC)cc3)c(Cc3ccc(OC)c(OC)c3O)n2C)C(=O)N\1C`, for which the GI50 in the assay with HT-29 turned out to be 6 µg/mL (≈ 11.8 µM); in the assay with A549, 6 µg/mL (≈ 11.8 µM); with MCF7, 3 µg/mL (≈ 5.92 µM).

For `COc1ccc(Cc2nc(/N=C3\NC(=O)N(C)C3=O)n(C)c2Cc2ccc(OC)c(OC)c2O)cc1` [PYRONAAMIDINE], the zone of inhibition at 100 µg/disc with Candida albicans worked out at 7 mm; in the assay on Bacillus subtilis, 10 mm.
